The values below come from patent US20100285149A1, “NOVEL TETRAHYDROPYRIDOTHIOPHENES” (priority 2006, published 2010).

The test system of assay [1] is RKO (RKOp27) human colon adenocarcinoma cells. The assay is described as follows: Alamar Blue cell viability assay, proliferating (uninduced) RKO p27 cells. In kind it is cell-based. To be noted: anti-proliferative/cytotoxic activity, 72 hours incubation, no Ponasterone A. The protocol: The anti-proliferative/cytotoxic activity of the compounds described herein, can be tested on subclones of RKO (RKOp27) human colon adenocarcinoma cells (Schmidt et al., Oncogene 19, 2423-2429; 2000) using the Alamar Blue cell viability assay (described in O'Brien et al. Eur J Biochem 267, 5421-5426, 2000). The compounds are dissolved as 20 mM solutions in dimethylsulfoxide (DMSO) and subsequently diluted in semi-logarithmic steps. DMSO dilutions are further diluted 1:100 into Dulbecco's modified Eagle's medium (DMEM) containing 10% fetal calf serum to a final concentration twice as much as the final concentration in the test. RKO subclones are seeded into 96 well flat bottom plates at a density of 5000 cells per well in a volume of 50 μl per well. 24 hours after seeding the 50 μl each of the compound dilutions in DMEM medium are added into each well of the 96 Well plate. Each compound dilution is tested as quadruplicates. Wells containing untreated control cells are filled with 50 μl DMEM medium containing 1% DMSO. The cells are then incubated with the substances for 72 hours at 37° C. in a hunified atmosphere containing 5% carbon dioxide. To determine the viability of the cells, 10 μl of an Alamar Blue solution (Biosource) are added and the fluorescence is measured at an extinction of 544 nm and an emission of 590 nm. For the calculation of the cell viability the emission value from untreated cells is set as 100% viability and the emission rates of treated cells are set in relation to the values of untreated cells. Viabilities are expressed as % values.
The corresponding IC50 values of the compounds for anti-proliferative/cytotoxic activity are determined from the concentration-effect curves.
(§1) Representative IC50 values for anti-proliferation/cytotoxicity determined in the mentioned assays follow from the following table A, in which the numbers of the compound correspond to the numbers of the examples.

In assay [2] the test system is RKO colon adenocarcinoma cells (RKOp27) arrested by the expression of ectopic p27Kip1. The assay is described as follows: Alamar Blue cell viability assay, RKO p27 cells arrested by Ponasterone A induced p27Kip1. In kind it is cell-based. To be noted: Homo sapiens, anti-proliferative/cytotoxic activity, 72 hours incubation, 10 μM Ponasterone A. The protocol: To determine the cell cycle specific mode of action, subclones of RKO colon adenocarcinoma cells (RKOp27 or RKOp21 as described by Schmidt et al. in Oncogene 19, 2423-2429; 2000) are seeded into 96 well flat bottom plates at a density of 15000 cells per well in a volume of 50 μl per well in DMEM growth medium with 10% FCS containing 10 μM Ponasterone A. 24 hours after seeding the 50 μl each of the compound dilutions in DMEM medium are added into each well of the 96 Well plate. Each compound dilution is tested as quadruplicates. Wells containing untreated control cells are filled with 50 μl DMEM medium containing 1% DMSO. The cells are then incubated with the substances for 72 hours at 37° C. in a humidified athmosphere containing 5% carbon dioxide. To determine the viability of the cells, 10 μl of an Alamar Blue solution (Biosource) are added and the fluorescence was measured at an extinction of 544 nm and an emission of 590 nm. For the calculation of the cell viability the emission value from untreated cells is set as 100% viability and the emission rates of treated cells are set in relation to the values of untreated cells. Viabilities are expressed as % values. Viability is compared of proliferating cells grown in the absence of the inducer Ponasterone A, versus viability of cells arrested by the expression of ectopic p27Kip1 induced by Ponasterone A.
as §1
(Alamar Blue is a resazurin reagent that responds to reducing activity.)

Some results are limits rather than exact numbers.

For the compound `CCNC(=O)N1CCc2c(sc(NC(=O)C3CC3c3ccccc3OC)c2C#N)C1` (racemic) [Example 116, 3-Cyano-2-({1-[(RS)-2-(2-methoxy-phenyl)-cyclopropyl]-methanoyl}-amino)-4,7-dihydro-5H-thieno[2,3-c]pyridine-6-carboxylic acid ethylamide], the results for the IC50 in assay [1] and in assay [2] were at most 500 nM and at least 100000 nM, respectively.

Take `CCNC(=O)N1CCc2c(sc(NC(=O)C3CC3c3cccc(OC)c3)c2C#N)C1` (racemic) [Example 117, 3-Cyano-2-({1-[(RS)-2-(3-methoxy-phenyl)-cyclopropyl]-methanoyl}-amino)-4,7-dihydro-5H-thieno[2,3-c]pyridine-6-carboxylic acid ethylamide]: the IC50 (usually the concentration needed to halve the response being measured) in assay [1] is at most 500 nM; in assay [2], at least 60000 nM.

`COc1cccc(CCC(=O)Nc2sc3c(c2C#N)CCN(C(=O)NCCc2cn(C)cn2)C3)c1` [Example 71, 3-Cyano-2-[3-(3-methoxy-phenyl)-propanoylamino]-4,7-dihydro-5H-thieno[2,3-c]pyridine-6-carboxylic acid [2-(1-methyl-1H-imidazol-4-yl)-ethyl]-amide]: the IC50 is 500 to 2000 nM in assay [1] and at least 100000 nM in assay [2].

`COc1ccccc1CCC(=O)Nc1sc2c(c1C#N)CCN(C(=O)NCCc1cn(C)cn1)C2` [Example 105, 3-Cyano-2-[3-(2-methoxy-phenyl)-propanoylamino]-4,7-dihydro-5H-thieno[2,3-c]pyridine-6-carboxylic acid [2-(1-methyl-1H-imidazol-4-yl)-ethyl]-amide]: the figures for the IC50 in assay [1] and in assay [2] were at most 500 nM and at least 100000 nM, respectively.

On to `CCNC(=O)N1CCc2c(sc(NC(=O)CCc3ccccc3OCC)c2C#N)C1` [Example 106, 3-Cyano-2-[3-(2-ethoxy-phenyl)-propanoylamino]-4,7-dihydro-5H-thieno[2,3-c]pyridine-6-carboxylic acid ethylamide], for which the IC50 in assay [1] is at most 500 nM; in assay [2], at least 100000 nM.

`CCNC(=O)N1CCc2c(sc(NC(=O)CCc3cc(C)ccc3OC)c2C#N)C1` [Example 107, 3-Cyano-2-[3-(2-methoxy-5-methyl-phenyl)-propanoylamino]-4,7-dihydro-5H-thieno[2,3-c]pyridine-6-carboxylic acid ethylamide]: the results for the IC50 in assay [1] and in assay [2] were at most 500 nM and at least 100000 nM, respectively.

Turning to `CCNC(=O)N1CCc2c(sc(NC(=O)CCc3cccc(OC)c3)c2C#N)C1` [Example 108, 3-Cyano-2-[3-(3-methoxy-phenyl)-propanoylamino]-4,7-dihydro-5H-thieno[2,3-c]pyridine-6-carboxylic acid ethylamide], the figures for the IC50 in assay [1] and in assay [2] were at most 500 nM and at least 100000 nM, respectively.

Take `CCNC(=O)N1CCc2c(sc(NC(=O)CCc3ccco3)c2C#N)C1` [Example 109, 3-Cyano-2-(3-furan-2-yl-propanoylamino)-4,7-dihydro-5H-thieno[2,3-c]pyridine-6-carboxylic acid ethylamide]: the IC50 in assay [1] is at most 500 nM; in assay [2] it was at least 100000 nM.

As to `CCNC(=O)N1CCc2c(sc(NC(=O)CC(C)c3cccc(OC)c3)c2C#N)C1` (stereo not drawn) [Example 110, 3-Cyano-2-[3-(3-methoxy-phenyl)-butanoylamino]-4,7-dihydro-5H-thieno[2,3-c]pyridine-6-carboxylic acid ethylamide], the values for the half-inhibitory concentration (IC50) in assay [1] and in assay [2] were at most 500 nM and at least 100000 nM, respectively.

Take `CCNC(=O)N1CCc2c(sc(NC(=O)CC(C)c3ccccc3OC)c2C#N)C1` (stereo not drawn) [Example 111, 3-Cyano-2-[3-(2-methoxy-phenyl)-butanoylamino]-4,7-dihydro-5H-thieno[2,3-c]pyridine-6-carboxylic acid ethylamide]: the IC50 in assay [1] was at most 500 nM; in assay [2] it was at least 60000 nM.

For the compound `CCNC(=O)N1CCc2c(sc(NC(=O)CC(C)c3ccccc3OCC)c2C#N)C1` (stereo not drawn) [Example 112, 3-Cyano-2-[3-(2-ethoxy-phenyl)-butanoylamino]-4,7-dihydro-5H-thieno[2,3-c]pyridine-6-carboxylic acid ethylamide], the IC50 was at most 500 nM in assay [1] and at least 100000 nM in assay [2].

As to `CCNC(=O)N1CCc2c(sc(NC(=O)CCc3ccccc3OC)c2C#N)C1` [Example 113, 3-Cyano-2-[3-(2-methoxy-phenyl)-propanoylamino]-4,7-dihydro-5H-thieno[2,3-c]pyridine-6-carboxylic acid ethylamide], the IC50 in assay [1] was at most 500 nM; in assay [2], at least 100000 nM.

Regarding `CCNC(=O)N1CCc2c(sc(NC(=O)CC(C)c3ccccc3)c2C#N)C1` (stereo not drawn) [Example 114, 3-Cyano-2-(3-phenyl-butanoylamino)-4,7-dihydro-5H-thieno[2,3-c]pyridine-6-carboxylic acid ethylamide], the figures for the IC50 in assay [1] and in assay [2] were at most 500 nM and at least 100000 nM, respectively.

With `CCNC(=O)N1CCc2c(sc(NC(=O)CCc3ccccc3)c2C#N)C1` [Example 115, 3-Cyano-2-(3-phenyl-propanoylamino)-4,7-dihydro-5H-thieno[2,3-c]pyridine-6-carboxylic acid ethylamide], the IC50 is at most 500 nM in assay [1] and at least 100000 nM in assay [2].

Consider `CCNC(=O)N1CCc2c(sc(NC(=O)CCC3CCCCC3)c2C#N)C1` [Example 118, 3-Cyano-2-(3-cyclohexyl-propanoylamino)-4,7-dihydro-5H-thieno[2,3-c]pyridine-6-carboxylic acid ethylamide], for which the half-inhibitory concentration (IC50) in assay [1] was at most 500 nM; in assay [2], at least 100000 nM.
